The source of these data is publication PMC8601599, “Computational redesign of a fluorogen activating protein with Rosetta” (PLoS Computational Biology, 2021).

Changes are numbered by the printed parent chain.

Test in all cases: fluorescence titration
Holding throughout (format): binding

One experiment concerns the target T1, DiB-RM-split (Escherichia coli, UniProt P0A901, A36C/F53A/N76F/S89Y/E90V/S107A/L141N).
T1 construct: gene blc; two co-expressed self-assembling fragments of DiB-RM split between residues 109 and 110; E. coli XJb(DE3), TALON then size exclusion
T1 sequence (P0A901 20-109 A36C/F53A/N76F/S89Y/E90V/S107A): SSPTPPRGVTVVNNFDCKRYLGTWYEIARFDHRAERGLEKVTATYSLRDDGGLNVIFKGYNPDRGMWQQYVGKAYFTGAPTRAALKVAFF
T1 sequence (P0A901 110-177 L141N): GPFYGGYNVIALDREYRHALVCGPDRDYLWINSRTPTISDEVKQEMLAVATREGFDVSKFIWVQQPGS
The note with it: apparent Kd, 1 μM chromophore, varied protein, excitation 490 nm. The text has this:
fluorescence titration on DiB-RM-split

The target in experiment [1] is T2, DiB1; DiB-RM (lipocalin Blc mutants) (Escherichia coli, UniProt P0A901, A36C/F53A/N76F/E90V/S107A/L141N).
T2 construct: E. coli XJb(DE3) expression from pBAD, TALON then size exclusion; monomer in solution
T2 sequence (P0A901 20-177 A36C/F53A/N76F/E90V/S107A/L141N): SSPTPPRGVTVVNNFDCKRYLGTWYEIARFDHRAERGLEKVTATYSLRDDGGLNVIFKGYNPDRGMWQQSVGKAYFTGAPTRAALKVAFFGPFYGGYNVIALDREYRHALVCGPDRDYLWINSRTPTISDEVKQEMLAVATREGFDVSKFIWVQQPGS
The note with it: DiB-RM-Y89S; apparent Kd; 1 μM chromophore, varied protein; excitation 490 nm. The text has this: (§1) fluorescence titration on DiB1; DiB-RM (lipocalin Blc mutants)

Experiment [2] has as its target T3, DiB1; DiB-RM (lipocalin Blc mutants) (Escherichia coli, UniProt P0A901, A36C/F53A/N76F/S89Y/E90V/L141N).
T3 construct: E. coli XJb(DE3) expression from pBAD, TALON then size exclusion; monomer in solution
T3 sequence (P0A901 20-177 A36C/F53A/N76F/S89Y/E90V/L141N): T2 sequence (P0A901 20-177 A36C/F53A/N76F/E90V/S107A/L141N) with S70Y, A88S
The note with it: DiB-RM-A107S; apparent Kd; 1 μM chromophore, varied protein; excitation 490 nm.
Description: as §1

The target in experiment [3] is T4, DiB1; DiB-RM (lipocalin Blc mutants) (Escherichia coli, UniProt P0A901, A36C/F53A/N76F/S89Y/E90V/S107A/L141N).
T4 construct: E. coli XJb(DE3) expression from pBAD, TALON then size exclusion; monomer in solution
T4 sequence (P0A901 20-177 A36C/F53A/N76F/S89Y/E90V/S107A/L141N): T2 sequence (P0A901 20-177 A36C/F53A/N76F/E90V/S107A/L141N) with S70Y
The note with it: apparent Kd, 1 μM chromophore, varied protein, excitation 490 nm.
Description: as §1

Experiment [4] addresses T5, DiB1; DiB-RM (lipocalin Blc mutants) (Escherichia coli, UniProt P0A901, A36C/F53A/N76F/S89Y/S107A/L141N).
T5 construct: E. coli XJb(DE3) expression from pBAD, TALON then size exclusion; monomer in solution
T5 sequence (P0A901 20-177 A36C/F53A/N76F/S89Y/S107A/L141N): T2 sequence (P0A901 20-177 A36C/F53A/N76F/E90V/S107A/L141N) with S70Y, V71E
Particulars: DiB-RM-V90E; apparent Kd; 1 μM chromophore, varied protein; excitation 490 nm.
Description: as §1

Experiment [5] has as its target T6, DiB1; DiB-RM (lipocalin Blc mutants) (Escherichia coli, UniProt P0A901, A36C/F53A/S89Y/E90V/S107A/L141N).
T6 construct: E. coli XJb(DE3) expression from pBAD, TALON then size exclusion; monomer in solution
T6 sequence (P0A901 20-177 A36C/F53A/S89Y/E90V/S107A/L141N): T2 sequence (P0A901 20-177 A36C/F53A/N76F/E90V/S107A/L141N) with F57N, S70Y
The note with it: DiB-RM-F76N; apparent Kd; 1 μM chromophore, varied protein; excitation 490 nm.
Description: as §1

In experiment [6] the target is T7, DiB1; DiB-RM (lipocalin Blc mutants) (Escherichia coli, UniProt P0A901, A36C/L141N).
T7 construct: E. coli XJb(DE3) expression from pBAD, TALON then size exclusion; monomer in solution
T7 sequence (P0A901 20-177 A36C/L141N): T2 sequence (P0A901 20-177 A36C/F53A/N76F/E90V/S107A/L141N) with A34F, F57N, V71E, A88S
Particulars: apparent Kd, 1 μM chromophore, varied protein, excitation 490 nm.
Description: as §1

Experiment [7] deals with T8, DiB1; DiB-RM (lipocalin Blc mutants) (Escherichia coli, UniProt P0A901, A36C/N76F/S89Y/E90V/S107A/L141N).
T8 construct: E. coli XJb(DE3) expression from pBAD, TALON then size exclusion; monomer in solution
T8 sequence (P0A901 20-177 A36C/N76F/S89Y/E90V/S107A/L141N): T2 sequence (P0A901 20-177 A36C/F53A/N76F/E90V/S107A/L141N) with A34F, S70Y
The note with it: DiB-RM-A53F; apparent Kd; 1 μM chromophore, varied protein; excitation 490 nm.
Description: as §1

Consider `CCN(CC)c1ccc2c(c1)[B-](F)(F)[N+]1=C(C)N(C)C(=O)C1=C2` [M739], for which the Kd at DiB-RM-split worked out at 2800 ± 400 nM; in experiment [1], 660 ± 80 nM; in experiment [2], 290 ± 40 nM; in experiment [3], 170 ± 40 nM; in experiment [4] it was 380 ± 50 nM; in experiment [5], 70 ± 10 nM. Also, the figures for the Kd in experiment [6] and in experiment [7] were 40 ± 30 nM and 160 ± 40 nM, respectively.
